Among the data in PubChem BioAssay AID1259407 (Chemical Carcinogenesis Research Information System (CCRIS), 2018) are mutagenic call values, retold here.

This data set has as its system CCRIS mutagenicity, Ames/micronucleus/aberration tests. As to the kind of experiment: CCRIS mutagenicity studies.
[1] abbreviates: Test System: AMES SALMONELLA TYPHIMURIUM, Strain/Indicator: TA98, Metabolic Activation: HAMSTER, LIVER, S-9, AROCLOR 1254 (10%), Method: PREINCUBATION
Setting [2] is: Test System: AMES SALMONELLA TYPHIMURIUM, Strain/Indicator: TA98, Metabolic Activation: NONE, Method: PREINCUBATION
The mark [3] stands for this setting: Test System: AMES SALMONELLA TYPHIMURIUM, Strain/Indicator: TA98, Metabolic Activation: RAT, LIVER, S-9, AROCLOR 1254 (10%), Method: PREINCUBATION
Where [4] appears, read: Test System: AMES SALMONELLA TYPHIMURIUM, Strain/Indicator: TA100, Metabolic Activation: HAMSTER, LIVER, S-9, AROCLOR 1254 (10%), Method: PREINCUBATION
Setting [5] is: Test System: AMES SALMONELLA TYPHIMURIUM, Strain/Indicator: TA100, Metabolic Activation: NONE, Method: PREINCUBATION
Setting [6] is: Test System: AMES SALMONELLA TYPHIMURIUM, Strain/Indicator: TA100, Metabolic Activation: RAT, LIVER, S-9, AROCLOR 1254 (10%), Method: PREINCUBATION
Setting [7] is: Test System: AMES SALMONELLA TYPHIMURIUM, Strain/Indicator: TA1535, Metabolic Activation: HAMSTER, LIVER, S-9, AROCLOR 1254 (10%), Method: PREINCUBATION
[8] abbreviates: Test System: AMES SALMONELLA TYPHIMURIUM, Strain/Indicator: TA1535, Metabolic Activation: NONE, Method: PREINCUBATION
Where [9] appears, read: Test System: AMES SALMONELLA TYPHIMURIUM, Strain/Indicator: TA1535, Metabolic Activation: RAT, LIVER, S-9, AROCLOR 1254 (10%), Method: PREINCUBATION
The mark [10] stands for this setting: Test System: AMES SALMONELLA TYPHIMURIUM, Strain/Indicator: TA1537, Metabolic Activation: HAMSTER, LIVER, S-9, AROCLOR 1254 (10%), Method: PREINCUBATION
Where [11] appears, read: Test System: AMES SALMONELLA TYPHIMURIUM, Strain/Indicator: TA1537, Metabolic Activation: NONE, Method: PREINCUBATION
[12] abbreviates: Test System: AMES SALMONELLA TYPHIMURIUM, Strain/Indicator: TA1537, Metabolic Activation: RAT, LIVER, S-9, AROCLOR 1254 (10%), Method: PREINCUBATION
The mark [13] stands for this setting: Test System: AMES SALMONELLA TYPHIMURIUM, Strain/Indicator: TA98, Metabolic Activation: NONE, Method: STANDARD PLATE.
Setting [14] is: Test System: AMES SALMONELLA TYPHIMURIUM, Strain/Indicator: TA100, Metabolic Activation: NONE, Method: STANDARD PLATE.
The mark [15] stands for this setting: Test System: AMES SALMONELLA TYPHIMURIUM, Strain/Indicator: TA1535, Metabolic Activation: NONE, Method: STANDARD PLATE.
[16] abbreviates: Test System: AMES SALMONELLA TYPHIMURIUM, Strain/Indicator: TA1537, Metabolic Activation: NONE, Method: STANDARD PLATE.
The mark [17] stands for this setting: Test System: AMES SALMONELLA TYPHIMURIUM, Strain/Indicator: TA98, Metabolic Activation: RAT, LIVER, S-9, AROCLOR 1254, Method: STANDARD PLATE.
The mark [18] stands for this setting: Test System: AMES SALMONELLA TYPHIMURIUM, Strain/Indicator: TA100, Metabolic Activation: RAT, LIVER, S-9, AROCLOR 1254, Method: STANDARD PLATE.

Activity calls are given as the source filed them. The rule behind the calls is not given here.

With `COP(=S)(OC)SCn1nnc2ccccc2c1=O`, the mutagenic call was “inactive; negative; lymphocytes from 1 male and 1 female; azinphos-methyl purity 92.9%” (End Point: In vitro Chromosomal aberrations, Test System: Human lymphocytes, Metabolic Activation: None); “active; positive (structural and ploidy); lymphocytes from 1 male and 1 female; azinphos” (End Point: In vitro Chromosomal aberrations, Test System: Human lymphocytes, Metabolic Activation: Rat, liver, S-9); “inactive; negative” under setting [1]; “inactive; negative” under setting [2]; “active; positive” under setting [3]; “inactive; negative” under setting [4]. Moreover, the mutagenic call is “inactive; negative” under setting [5]; “inactive; negative” under setting [6]; “inactive; negative” under setting [7]; “inactive; negative” under setting [8]; “inactive; negative” under setting [9]; “inactive; negative” under setting [10]. In addition, the mutagenic call reads like this: under setting [11], “inactive; negative”; under setting [12], “inactive; negative”.

Take `CC(=O)Nc1snc2c(Cl)cc(Cl)cc12`: the mutagenic call runs as follows: under setting [13], “inactive; negative”; (Test System: AMES SALMONELLA TYPHIMURIUM, Strain/Indicator: TA98, Metabolic Activation: S-9, Method: STANDARD PLATE) “inactive; negative”; under setting [14], “inactive; negative”; (Test System: AMES SALMONELLA TYPHIMURIUM, Strain/Indicator: TA100, Metabolic Activation: S-9, Method: STANDARD PLATE) “inactive; negative”; under setting [15], “inactive; negative”; (Test System: AMES SALMONELLA TYPHIMURIUM, Strain/Indicator: TA1535, Metabolic Activation: S-9, Method: STANDARD PLATE) “inactive; negative”. For the same compound, the mutagenic call reads like this: under setting [16], “inactive; negative”; (Test System: AMES SALMONELLA TYPHIMURIUM, Strain/Indicator: TA1537, Metabolic Activation: S-9, Method: STANDARD PLATE) “inactive; negative”.

For `CCOCCOC(=O)/C=C/c1ccc(OC)cc1`, the mutagenic call is, setting by setting: under setting [1], “inactive; negative”; under setting [2], “inactive; negative”; under setting [3], “inactive; negative”; under setting [4], “inactive; negative”; under setting [5], “inactive; negative”; under setting [6], “inactive; negative”. For the same compound, the mutagenic call under setting [7] is “inactive; negative”; the mutagenic call under setting [8] was “inactive; negative”; the mutagenic call under setting [9] is “inactive; negative”; the mutagenic call under setting [10] is “inactive; negative”; the mutagenic call under setting [11] is “inactive; negative”; the mutagenic call under setting [12] was “inactive; negative”.

As to `C[C@H]1CCC[C@@]2(C)CCCC[C@]12O`, the mutagenic call was “inactive; negative” under setting [13], “inactive; negative” under setting [17], “inactive; negative” under setting [14] and “inactive; negative” under setting [18].

Take `O=c1c2ccccc2c(=O)c2c1cc(Cl)c1[nH]c3c([nH]c12)c(Cl)cc1c(=O)c2ccccc2c(=O)c13`: the mutagenic call reads like this: (Test System: Ames Salmonella typhimurium, Strain/Indicator: TA98, Metabolic Activation: None, Method: Preincubation) “active; positive”; (Test System: Ames Salmonella typhimurium, Strain/Indicator: TA100, Metabolic Activation: None, Method: Preincubation) “inactive; negative”; (Test System: Ames Salmonella typhimurium, Strain/Indicator: TA102, Metabolic Activation: None, Method: Preincubation) “inactive; negative”; (Test System: Ames Salmonella typhimurium, Strain/Indicator: TA1535, Metabolic Activation: None, Method: Preincubation) “inactive; negative”.

For `CCN(CC)c1ccc(N=Nc2ccc([N+](=O)[O-])cc2C#N)cc1`, the mutagenic call was “active; positive” under setting [13]; “active; positive” under setting [17]; “active; positive” under setting [14]; “active; positive” under setting [18]; “inactive; negative” under setting [15]; “inactive; negative” (Test System: AMES SALMONELLA TYPHIMURIUM, Strain/Indicator: TA1535, Metabolic Activation: RAT, LIVER, S-9, AROCLOR 1254, Method: STANDARD PLATE). Moreover, the mutagenic call is, setting by setting: under setting [16], “active; positive”; (Test System: AMES SALMONELLA TYPHIMURIUM, Strain/Indicator: TA1537, Metabolic Activation: RAT, LIVER, S-9, AROCLOR 1254, Method: STANDARD PLATE) “active; positive”; (Test System: CHINESE HAMSTER OVARY, Strain/Indicator: CHO (HGPRT)/6-THIOGUANINE, Metabolic Activation: NONE) “inactive; negative”; (Test System: CHINESE HAMSTER OVARY, Strain/Indicator: CHO (HGPRT)/6-THIOGUANINE, Metabolic Activation: RAT, LIVER, S-9, AROCLOR 1254) “inactive; negative”; (Test System: UDS RAT HEPATOCYTES, Strain/Indicator: THY INCORP, Metabolic Activation: NONE, Method: AUTORADIOGRAPHY) “inactive; negative”.
